Tests used:
[1] = system: Mouse TCRP1A CD8+ T cells; test: CD107 cytotoxicity assay (degranulation assay), mouse T cells; format: cell-based; conditions: alprenolol 5 μM or 20 μM, 16 hours, vs control (PBS); FIG. 11A
Experimental: Mouse TCRP1A CD8^+ T cells: P1A-specific (TCRP1A) CD8^+ T cells were isolated from spleens and lymph nodes of TCRP1A mice using anti-mouse CD8a (Ly-2) MicroBeads (Miltenyi Biotec).
CD107 cytotoxicity assay (Degranulation assay): TCRP1A CD8^+ T cells were plated at 50,000 cells per well in a 96 U plate with different concentrations of guanabenz and incubated at 37° C. overnight prior to their use in the assay on the next day. On the day of the assay, the culture supernatant was removed from the cells and the cells were washed once with complete medium to remove the drug. The target cells L1210-P1A-B7.1 were added to the wells at a ratio of 1:1. Control wells containing either only T cells or target cells were also included for each plate. CD107a-APC was added to each well at the same time as addition of the target cells. The plate was then incubated at 37° C. for 90 minutes. At the end of the incubation period the cells were harvested and washed once with PBS. They were stained with anti-mouse CD8-Bv421 antibody for 15 minutes. The cells were then washed and resuspended in PBS and analyzed using FACS Fortessa flow cytometer. Human CD8^+ T cell degranulation was evaluated in a similar way. To induce CD8^+ T cell degranulation, T2 cells loaded with synthetic WT1126-134 peptide (10^6 T2 cells were incubated for 1 hour in 200 μL Optimem medium with 100 μmol/L synthetic peptide at 37° C.) were used as target cells.
(§1) T cells were incubated with guanabenz (10, 20, or 40 μM) for 16 h to 24 h as indicated. Mice received a daily intra-peritoneal injection of guanabenz (5 mg/kg) or vehicle (PBS) from the day of randomization (and the day of ACT when applicable) until the day of sacrifice.
CD107 cytotoxicity assay (Degranulation assay): the assay was carried out as described hereinabove (see Example 1) with different 20 μM guanabenz or different concentrations of alprenolol or sunitinib, as indicated.
T cells were incubated with 20 μM guanabenz for 16 h as indicated.
T cells were incubated with alprenolol (5 or 20 μM) for 16 h as indicated. […]

[2] = system: TiRP tumor; test: TiRP melanoma model with adoptive cell transfer of activated P1A-specific CD8+ T cells; format: in vivo, mouse; conditions: alprenolol 5 mg/kg i.p. daily with ACT
Description: TiRP mice: TiRP mice have been created by crossing Ink4a/Arf^flox/flox mice with mice carrying a transgenic construct controlled by the tyrosinase promoter and driving the expression of H-Ras^12V and Trap1a which encodes a MAGE-type tumor antigen P1A; the promoter is separated from the coding region by a stop cassette made of a floxed self-deleting CreER (Huijbers et al., 2006, Cancer Res 66, 3278-3286). Those mice were backcrossed to a B10.D2 background and bred to homozygosity. TCRP1A mice heterozygous for the H-2Ld/P1A35-43-specific TCR transgene were kept on the B10.D2; Rag1^−/− background (Shanker et al., 2004, J Immunol 172, 5069-5077). All mice used in this study were produced under specific pathogen free (SPF) conditions at the animal facility of the Ludwig Institute for Cancer Research. All the rules concerning animal welfare have been respected according to the 2010/63/EU Directive. All procedures were performed with the approval of the local Animal Ethical Committee, with reference 2015/UCL/MD/15.
A fresh solution of 40H-Tamoxifen was prepared by dissolving 40H-Tamoxifen (Imaginechem) in 100% ethanol and mineral oil (ratio 1:9) followed by 30-min sonication, and injected subcutaneously (2 mg/200 μL per mouse) in the neck area of gender-matched 7 weeks old TiRP mice. Tumor appearance was monitored daily and tumors were measured three times/week. Tumor volume (in mm^3) was calculated by the following formula: Volume=width^2×length/2. Tumor-bearing TiRP mice were randomized based on the tumor size when average volume was 400 mm^3, 500 mm^3 or 1000 mm^3 as indicated.
as §1
For the adoptive cell transfer (ACT), P1A-specific (TCRP1A) CD8^+ T cells were isolated from spleens and lymph nodes of TCRP1A mice as described hereinabove, and stimulated in vitro by co-culture with irradiated (10.000 rads) L1210-P1A-B7.1 cells (Gajewski et al., 1995, J Immunol 154, 5637-5648) at 1:2 ratio (0.5×10^5 CD8^+ T cells and 10^5 L1210-P1A-B7.1 cells per well in 48-well plates) in IMDM (GIBCO) containing 10% fetal bovine serum supplemented with L-arginine (0.55 mM, Merck), L-asparagine (0.24 mM, Merck), glutamine (1.5 mM, Merck), betamercaptoethanol (50 μM, Sigma), 50 UmL^−1 penicillin and […] (Life Technologies). Four days later, TCRP1A CD8^+ T cells were purified on a Lymphoprep gradient (StemCell) and 10^7 living cells were injected intravenously in 200 μL PBS in TiRP-tumor bearing mice on the day of randomization.
Mice received a daily intra-peritoneal injection of alprenolol (5 mg/kg) or vehicle (PBS) from the day of ACT until the day of sacrifice.
T cells were incubated with sunitinib (0.1, 0.3, 0.8, 2.5 or 4 μM) for 16 h as indicated. Mice received a daily dose of sunitinib (20 mg/kg) or vehicle (PBS) by oral gavage from the day of ACT until the day of sacrifice.

For C=CCc1ccccc1OCC(O)CNC(C)C (stereo not drawn) [alprenolol], the “T cell degranulation (FACS detection of CD107a)” value [1] was “did no significantly increase”, the “tumor infiltration of CD8+ T cells (tetramer+ CD8+ T cells among total CD45+ cells)” value ([2]; 7 days after ACT, FIG. 11C) was “not increased” and the tumor growth ([2]; day 0 to day 10, vs ACT alone, FIG. 11B) was “not significantly decreased”.
